For test [1], the system named is mouse thrombocytopenia induced by anti-mouse CD41 antibody. The test can be described thus: Mouse thrombocytopenia model. The class given is in vivo. Particulars: Platelet, female BALB/c mice, 50 mg/kg 1 hour before anti-CD41 antibody, blood sampling 4 hours after antibody, read-out: improvement of platelet count compared with the control group. How it is done: Test compounds were tested to examine effects upon mouse thrombocytopenia. Each test compound (50 mg/kg) was administered to 5- to 7-week-old female BALB/c mice (Charles River Laboratories Japan, Inc.). One hour thereafter, an anti-mouse CD41 ([…]) antibody (SCB) (1 μg (200 μl)) was intravenously administered to each mouse so as to induce thrombocytopenia. Four hours after administration of the anti-CD41 antibody, blood sampling from the postcava was performed. The platelet count was determined using an automated hematology analyzer.

In test [2] the target is T1, glutathione S-transferase (GST)-linked full-length human Syk protein (Homo sapiens, UniProt P43405).
T1 construct: glutathione S-transferase (GST)-linked full-length human Syk protein; purchased Carna Biosciences; host or cells: Baculovirus expression system
The test can be described thus: Syk enzyme assay. The class given is biochemical. As to conditions: 0.83 nM Syk, time-resolved fluorescence; read-out: IC50 of Syk-inhibitory activity. The gist of the method: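 Phosphotyrosine on a biotin-peptide substrate (0.5 μM) was read by time-resolved fluorescence at 615 and 665 nm with Eu-anti-pTyr antibody and APC-streptavidin after 1 h EDTA stop.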

Test [3] deals with THP-1 cells (TNFα secretion on human IgG-coated plate). The experiment in a line: TNFα generation assay. The class given is cell-based. Particulars: IFN-γ differentiated THP-1 cells, 7 hours, AlphaLISA, read-out: IC50 of TNFα generation inhibitory activity. An outline of the steps:
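Secreted TNFα was measured by AlphaLISA after 7 h of culture on human IgG-coated wells (coating at 10 μg/ml), with 5×10^4 cells/well. Before plating, the cells had been treated with compound for 30 min at room temperature. The cells were macrophage-like THP-1, produced by a 2-day exposure to 10 ng/ml IFN-γ.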

Test [4] deals with THP-1 cells (phagocytosis of opsonized Escherichia coli). The test can be described thus: Antibody-dependent phagocytosis assay. As to conditions: Homo sapiens; IFNγ differentiated THP-1 cells, opsonized pHrodo Escherichia coli, 3 hours; read-out: IC50 upon phagocytosis inhibition. The test is classed as cell-based. An outline of the steps: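 Read-out was imaging-based quantification of pHrodo-labeled, antibody-opsonized E. coli taken up by Calcein AM-stained viable cells after 3 h at 37° C. The cells were IFNγ-differentiated THP-1 macrophages (10 ng/ml, 2 days), preincubated with compound for 30 min at room temperature.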

pIC50: −log10 of the molar value.

`COCCN(C)c1nn(C)c2ccc(Nc3nc(N[C@@H]4CCCC[C@@H]4N)c(F)cc3C(N)=O)cc12` [Example 2-456, 6-(((1R,2S)-2-aminocyclohexyl)amino)-5-fluoro-2-((3-((2-methoxyethyl)(methyl)amino)-1-methyl-1H-indazol-5-yl)amino)nicotinamide]: the change in vivo at 50 mg/kg in test [1] was at least 50%. The pIC50 in test [2] was over 8.00.

As for `Cc1cc(C)n(-c2cncc(Nc3nc(N[C@@H]4CCCC[C@@H]4N)c(F)cc3C(N)=O)c2)n1` [Example 2-473, 6-(((1R,2S)-2-aminocyclohexyl)amino)-2-((5-(3,5-dimethyl-1H-pyrazol-1-yl)pyridin-3-yl)amino)-5-fluoronicotinamide], in test [1], the change in vivo at 50 mg/kg was at least 50%. Also, the pIC50 in test [2] is 7.30 to 8.00.

In the case of `CCn1nc(OC)c2cc(Nc3nc(N[C@H](CC(C)C)[C@H](C)N)c(F)cc3C(N)=O)ccc21` [Example 2-51, 6-(((2S,3R)-2-amino-5-methylhexan-3-yl)amino)-2-((1-ethyl-3-methoxy-1H-indazol-5-yl)amino)-5-fluoronicotinamide], the pIC50 is 6.70 to 6.89 in test [3], over 6.00 in test [4] and over 8.00 in test [2].

As to `CC[C@H](N)[C@@H](CC)Nc1nc(Nc2cnc(C)c(C)c2)c(C(N)=O)cc1F` [Example 2-36, 6-(((3R,4S)-4-aminohexan-3-yl)amino) 2-((5,6-dimethylpyridin-3-yl)amino)-5-fluoronicotinamide], the pIC50 was 6.70 to 6.89 in test [3], 5.52 to 6.00 in test [4] and 7.30 to 8.00 in test [2].

Regarding `CC[C@@H](Nc1nc(Nc2cc(F)cc3c2cnn3CCOC)c(C(N)=O)cc1F)[C@H](C)N` [Example 2-376, 6-(((2S,3R)-2-aminopentan-3-yl)amino)-5-fluoro-2-((6-fluoro-1-(2-methoxyethyl)-1H-indazol-4-yl)amino)nicotinamide], the pIC50 is 6.89 to 7.19 in test [3], over 6.00 in test [4] and over 8.00 in test [2].

For the compound `CCn1ncc2c(Nc3nc(N[C@H](CC(C)C)[C@H](C)N)c(F)cc3C(N)=O)cncc21` [Example 2-322, 6-(((2S,3R)-2-amino-5-methylhexan-3-yl)amino)-2-((1-ethyl-1H-pyrazolo[3,4-c]pyridin-4-yl)amino)-5-fluoronicotinamide], the values for the pIC50 in test [3], in test [4] and in test [2] were 6.89 to 7.19, over 6.00 and over 8.00, respectively.

On to `COc1ncc(Nc2nc(N[C@H](C3CCC3)[C@H](C)N)c(F)cc2C(N)=O)cc1-n1nccn1` [Example 2-114, 6-(((1R,2S)-2-amino-1-cyclobutylpropyl)amino)-5-fluoro-2-((6-methoxy-5-(2H-1,2,3-triazol-2-yl)pyridin-3-yl)amino)nicotinamide], for which the results for the pIC50 in test [3], in test [4] and in test [2] were 6.70 to 6.89, 5.52 to 6.00 and over 8.00, respectively.

With `CC[C@@H](Nc1nc(Nc2ccc3c(c2)c(OC(F)F)nn3C)c(C(N)=O)cc1F)[C@H](C)N` [Example 2-170, 6-(((2S,3R)-2-aminopentan-3-yl)amino)-2-((3-(difluoromethoxy)-1-methyl-1H-indazol-5-yl)amino)-5-fluoronicotinamide], the pIC50 in test [3] was 6.70 to 6.89; in test [4], 5.52 to 6.00; in test [2] it was over 8.00.

On to `Cc1cncc(Nc2nc(N[C@@H]3CCOC[C@@H]3N)c(F)cc2C(N)=O)c1` [Example 2-218, 6-(((3R,4R)-3-aminotetrahydro-2H-pyran-4-yl)amino)-5-fluoro-2-((5-methylpyridin-3-yl)amino)nicotinamide], for which the pIC50 in test [3] was 6.89 to 7.19; in test [4], 5.52 to 6.00; in test [2] it was 7.30 to 8.00.

In the case of `COc1ncc(Nc2nc(N[C@H](CC(C)C)[C@H](C)N)c(F)cc2C(N)=O)cc1F` [Example 2-66, 6-(((2S,3R)-2-amino-5-methylhexan-3-yl)amino)-5-fluoro-2-((5-fluoro-6-methoxypyridin-3-yl)amino)nicotinamide], the pIC50 in test [3] was 6.70 to 6.89; in test [4] it was over 6.00; in test [2], 7.30 to 8.00.

For `Cc1ncc(Nc2nc(N[C@H](c3ccccc3F)[C@H](C)N)c(F)cc2C(N)=O)cc1-n1nccn1` [Example 2-409, 6-(((1R,2S)-2-amino-1-(2-fluorophenyl)propyl)amino)-5-fluoro-2-((6-methyl-5-(2H-1,2,3-triazol-2-yl)pyridin-3-yl)amino)nicotinamide], the pIC50 in test [3] was 6.70 to 6.89; in test [4], 5.52 to 6.00; in test [2], over 8.00.

In the case of `CC(C)C[C@@H](Nc1nc(Nc2cccc3c2cnn3CC(F)F)c(C(N)=O)cc1F)[C@H](C)N` [Example 2-22, 6-(((2S,3R)-2-amino-5-methylhexan-3-yl)amino)-2-((1-(2,2-difluoroethyl)-1H-indazol-4-yl)amino)-5-fluoronicotinamide], the results for the pIC50 in test [3], in test [4] and in test [2] were 6.70 to 6.89, over 6.00 and over 8.00, respectively.

Turning to `CC[C@@H](Nc1nc(Nc2cnc(C)c(C)c2)c(C(N)=O)cc1F)[C@H](C)N` [Example 2-17, 6-(((2S,3R)-2-aminopentan-3-yl)amino)-2-((5,6-dimethylpyridin-3-yl)amino)-5-fluoronicotinamide], the pIC50 is 6.89 to 7.19 in test [3], over 6.00 in test [4] and over 8.00 in test [2].

Turning to `CC[C@H](N)[C@@H](C)Nc1nc(Nc2ccc3c(cnn3C)c2)c(C(N)=O)cc1F` [Example 2-40, 6-(((2R,3S)-3-aminopentan-2-yl)amino)-5-fluoro-2-((1-methyl-1H-indazol-5-yl)amino)nicotinamide], the pIC50 in test [3] was over 7.19; in test [4], over 6.00; in test [2], over 8.00.

In the case of `CCn1ncc2c(Nc3nc(N[C@@H]4CCOC[C@@H]4N)c(F)cc3C(N)=O)cncc21` [Example 2-317, 6-(((3R,4R)-3-aminotetrahydro-2H-pyran-4-yl)amino)-2-((1-ethyl-1H-pyrazolo[3,4-c]pyridin-4-yl)amino)-5-fluoronicotinamide], the pIC50 in test [3] was 6.89 to 7.19; in test [4], 5.52 to 6.00; in test [2] it was over 8.00.

As to `Cc1ncc(Nc2nc(N[C@H](c3ccc(F)cc3)[C@H](C)N)c(F)cc2C(N)=O)cc1F` [Example 2-272, 6-(((1R,2S)-2-amino-1-(4-fluorophenyl)propyl)amino)-5-fluoro-2-((5-fluoro-6-methylpyridin-3-yl)amino)nicotinamide], the pIC50 is 6.70 to 6.89 in test [3], over 6.00 in test [4] and 7.30 to 8.00 in test [2].

Regarding `CC[C@@H](Nc1nc(Nc2ccc3c(c2)c(OC)nn3CC)c(C(N)=O)cc1F)[C@H](C)N` [Example 2-52, 6-(((2S,3R)-2-aminopentan-3-yl)amino)-2-((1-ethyl-3-methoxy-1H-indazol-5-yl)amino)-5-fluoronicotinamide], the figures for the pIC50 in test [3], in test [4] and in test [2] were 6.70 to 6.89, over 6.00 and over 8.00, respectively.

As to `COCCn1ncc2c(Nc3nc(N[C@@H]4CCOC[C@@H]4N)c(F)cc3C(N)=O)cc(F)cc21` [Example 2-375, 6-(((3R,4R)-3-aminotetrahydro-2H-pyran-4-yl)amino)-5-fluoro-2-((6-fluoro-1-(2-methoxyethyl)-1H-indazol-4-yl)amino)nicotinamide], the pIC50 was 6.89 to 7.19 in test [3], 5.52 to 6.00 in test [4] and over 8.00 in test [2].

Consider `CCC[C@@H](Nc1nc(Nc2cccc3c2cnn3CC)c(C(N)=O)cc1F)[C@H](C)N` [Example 2-96, 6-(((2S,3R)-2-aminohexan-3-yl)amino)-2-((1-ethyl-1H-indazol-4-yl)amino)-5-fluoronicotinamide], for which the pIC50 in test [3] was 6.70 to 6.89; in test [4], over 6.00; in test [2], over 8.00.

Regarding `COc1ncc(Nc2nc(N[C@H](C3CC3)[C@H](C)N)c(F)cc2C(N)=O)cc1-n1ccnn1` [Example 2-162, 6-(((1R,2S)-2-amino-1-cyclopropylpropyl)amino)-5-fluoro-2-((6-methoxy-5-(1H-1,2,3-triazol-1-yl)pyridin-3-yl)amino)nicotinamide], the pIC50 is 6.70 to 6.89 in test [3], 5.52 to 6.00 in test [4] and 7.30 to 8.00 in test [2].

Turning to `CCn1ncc2c(Nc3nc(N[C@H](C4CC4)[C@H](C)N)c(F)cc3C(N)=O)cncc21` [Example 2-320, 6-(((1R,2S)-2-amino-1-cyclopropylpropyl)amino)-2-((1-ethyl-1H-pyrazolo[3,4-c]pyridin-4-yl)amino)-5-fluoronicotinamide], the pIC50 is 6.89 to 7.19 in test [3], over 6.00 in test [4] and over 8.00 in test [2].

On to `Cc1cccc(Nc2nc(N[C@H](C3CC3)[C@H](C)N)c(F)cc2C(N)=O)c1` [Example 2-44, 6-(((1R,2S)-2-amino-1-cyclopropylpropyl)amino)-5-fluoro-2-(m-tolylamino)nicotinamide], for which the pIC50 in test [3] is 6.89 to 7.19; in test [4], over 6.00; in test [2], over 8.00.

Source of the values: patent US9051310B2, “Nicotinamide derivative or salt thereof” (FUJIFILM Corporation, priority 2011, dated 2015).
